Data on 2 compounds can be found in paper PMC8881512 (Nature Communications, 2022).

One experiment has as its target T1, LATS2 (Homo sapiens, UniProt Q9NRM7).
T1 construct: purchased Signalchem
T1 sequence (Q9NRM7 1-1088): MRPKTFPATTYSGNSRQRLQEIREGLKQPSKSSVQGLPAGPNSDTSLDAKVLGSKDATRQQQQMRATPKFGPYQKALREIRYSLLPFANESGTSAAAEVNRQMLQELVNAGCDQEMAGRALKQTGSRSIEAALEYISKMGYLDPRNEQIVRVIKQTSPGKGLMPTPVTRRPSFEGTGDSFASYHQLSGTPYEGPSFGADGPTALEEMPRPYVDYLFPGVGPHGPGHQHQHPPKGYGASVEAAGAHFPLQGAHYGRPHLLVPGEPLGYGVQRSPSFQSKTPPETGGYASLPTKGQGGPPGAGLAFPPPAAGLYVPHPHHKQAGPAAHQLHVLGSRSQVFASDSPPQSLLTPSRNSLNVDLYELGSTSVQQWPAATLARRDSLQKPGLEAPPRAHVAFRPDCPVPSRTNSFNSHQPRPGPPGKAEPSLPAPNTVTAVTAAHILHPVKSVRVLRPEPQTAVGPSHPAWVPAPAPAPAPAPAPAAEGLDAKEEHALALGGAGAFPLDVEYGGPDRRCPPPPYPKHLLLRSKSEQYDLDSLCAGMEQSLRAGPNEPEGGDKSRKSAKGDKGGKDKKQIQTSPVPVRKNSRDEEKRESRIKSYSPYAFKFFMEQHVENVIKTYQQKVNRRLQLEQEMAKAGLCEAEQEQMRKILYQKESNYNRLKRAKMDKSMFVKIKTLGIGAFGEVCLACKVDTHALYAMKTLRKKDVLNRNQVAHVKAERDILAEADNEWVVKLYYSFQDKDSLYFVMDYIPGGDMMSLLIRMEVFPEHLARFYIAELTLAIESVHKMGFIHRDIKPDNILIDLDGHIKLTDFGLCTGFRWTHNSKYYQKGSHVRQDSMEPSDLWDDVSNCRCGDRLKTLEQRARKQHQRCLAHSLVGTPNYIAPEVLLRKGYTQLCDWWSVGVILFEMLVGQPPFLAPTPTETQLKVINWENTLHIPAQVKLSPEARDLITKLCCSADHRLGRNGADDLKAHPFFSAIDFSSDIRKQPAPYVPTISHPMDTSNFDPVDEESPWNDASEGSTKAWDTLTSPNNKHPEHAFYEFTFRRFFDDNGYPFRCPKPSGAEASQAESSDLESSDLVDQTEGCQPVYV
Kind of experiment: In vitro LATS2 kinase inhibition assay (HTRF). The class given is biochemical. More on the design: key to LATS2 kinase activity: % inhibition = (HIGH − ratio)×100/(HIGH − LOW). To be noted: for LATS2 kinase activity: Fig.5c; for IC50: in vitro, 6000 μM ATP, n = 2. The protocol:
The kinase activity of LATS1 and LATS2 were performed based on an adapted and optimised HTRF Kinase Binding assay (Cisbio). Briefly, the concentration-response curves with compound concentration range of 10,000 to 0.17 nM with 3-fold serial dilution and 1X Kinase enzymatic buffer (Cisbio), 1.2 nM LATS1 or LATS2 kinases (Signalchem), 0.5 μM biotinylation labelled YAP peptide (Vivace) were dispensed into 384-well microplates by automated digital dispenser Echo/POD with the final DMSO concentration in all wells at 0.5%. To start the enzymatic reaction, 3000 μM ATP (for LATS1) or 6000 μM ATP (for LATS2) were added using multidrop in a 10-μl volume and incubated for 90 min at 30 °C. Subsequently, 10 μl of HTRF KinEASE detection buffer (Cisbio) containing 31.25 nM acceptor conjugate (streptavidin-XL665) and 1:100 donor conjugate (TK antibody labelled with Eu^3+-Cryptate) mixture were added and incubated at RT for 60 min, and the fluorescence emission at two different wavelengths was measured (615 nm and 665 nm) on Envision. […] The inhibition was calculated by the formula, inhibition % = (HIGH − ratio) × 100/ (High − LOW). HIGH control stands for 0.5% DMSO with kinase and LOW control stands for 0.5% DMSO without kinase. The data was analysed by Xlfit software. The IC50 values were determined by fitting to a standard four-parameter logistic using GraphPad Prism.
(In general: Time-resolved FRET reads energy transfer from a long-lived donor to a nearby acceptor.)

A further experiment deals with T2, PHKg2 (Homo sapiens, UniProt P15735).
T2 construct: LATS1/LATS2 enzymes from Signalchem
T2 sequence (P15735 whole entry): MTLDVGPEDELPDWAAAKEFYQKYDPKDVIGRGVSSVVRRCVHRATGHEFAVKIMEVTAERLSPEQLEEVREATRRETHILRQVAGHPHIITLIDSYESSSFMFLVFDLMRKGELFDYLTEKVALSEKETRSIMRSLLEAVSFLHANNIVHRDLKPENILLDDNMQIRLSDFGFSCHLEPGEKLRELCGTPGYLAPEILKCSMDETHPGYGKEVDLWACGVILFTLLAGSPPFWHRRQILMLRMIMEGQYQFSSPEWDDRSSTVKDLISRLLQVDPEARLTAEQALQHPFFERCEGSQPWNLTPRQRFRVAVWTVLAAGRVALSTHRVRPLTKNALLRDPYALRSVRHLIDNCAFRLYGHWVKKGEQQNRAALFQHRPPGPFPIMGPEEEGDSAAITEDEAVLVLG
The experiment in a line: Kinome profiling. The experiment is classed as biochemical. To be noted: VT02956 (5 nM), read-out: % enzymatic activity relative to DMSO controls.

The subject of experiment [1] is Phospho-YAP (Ser127) in HEK293A cells. Kind of experiment: Cellular Phospho-YAP HTRF assay, HEK293A. The experiment is classed as cell-based. To be noted: for YAP phosphorylation: 293A, Fig.5d. The method, then: Compound inhibition of […] YAP phosphorylation were performed based on commercial Phospho-YAP (Ser127) kit (Cisbio). In brief, HEK293A cells at 80%-100% confluence was rinsed with PBS, digested in 0.25% Trypsin-EDTA and centrifuged at 1000 × g for 3 min. The cell pellet was resuspended with appropriate volume of serum-free medium, counted using automated cell counter (Invitrogen), adjusted to a working density of 2.9 × 10^6/ml and dispensed into 384-well small volume white plate (Greiner) at 12 μl/well (3.5 × 10^4 cells) using Thermo Multidrop Combi microplate dispenser. At the time of detection, 36 nl DMSO contain 3-fold serial diluted compounds ranging from 10,000 to 4.6 nM were added into designed wells by Eco system and incubated at 37 °C for 120 min. Cell were lysed by adding 4 μl lysis buffer (4x), and incubated for 45 min at room temperature under shaking. HTRF reaction was performed by adding 4 μl of premixed phospho-YAP Cryptate antibody/Phospho-YAP d2 antibody solution prepared in the detection buffer and incubate at room temperature overnight. […] The compound inhibition was calculated by the formula, inhibition % = ([…]) × 100/ (HPE−ZPE). HPE represent 100% effect and ZPE is 0% effect. The data processing procedures were similar as in vitro LATS kinase inhibition assay.

In another experiment the test system is melanoma B16 cells. Kind of experiment: Cell proliferation, B16. The experiment is classed as cell-based. To be noted: 0.5 µM or 2 µM VT02956 for 4 days; Supplementary Fig. 8f. The method, then: Cell proliferation rates were determined by automated cell counter. In brief, cells were plated at density of 0.1 million cells per well in six-well plate. Cell numbers were counted by the indicated time point as stated in the figure legends.

Another experiment concerns the target T3, CAMK2d (Homo sapiens, UniProt Q13557).
T3 construct: LATS1/LATS2 enzymes from Signalchem
Kind of experiment: Kinome profiling. As to conditions: VT02956 (5 nM), read-out: % enzymatic activity relative to DMSO controls. The class given is biochemical.

The target in another experiment is T4, COT1/MAP3K8 (Homo sapiens, UniProt P41279).
T4 construct: LATS1/LATS2 enzymes from Signalchem
T4 sequence (P41279 whole entry): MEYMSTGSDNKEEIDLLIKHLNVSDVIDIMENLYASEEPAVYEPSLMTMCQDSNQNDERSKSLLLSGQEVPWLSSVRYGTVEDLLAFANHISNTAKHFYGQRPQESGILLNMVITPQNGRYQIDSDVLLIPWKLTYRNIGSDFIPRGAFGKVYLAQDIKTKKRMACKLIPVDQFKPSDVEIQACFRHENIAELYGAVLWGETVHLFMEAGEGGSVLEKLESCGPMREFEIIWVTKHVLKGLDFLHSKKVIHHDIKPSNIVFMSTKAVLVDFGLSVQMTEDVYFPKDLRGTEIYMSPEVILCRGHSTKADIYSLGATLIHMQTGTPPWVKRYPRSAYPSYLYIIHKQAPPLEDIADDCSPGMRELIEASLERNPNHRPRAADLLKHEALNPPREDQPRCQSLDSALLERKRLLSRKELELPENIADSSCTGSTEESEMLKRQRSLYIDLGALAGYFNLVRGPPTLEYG
Kind of experiment: Kinome profiling. The class given is biochemical. To be noted: VT02956 (5 nM), read-out: % enzymatic activity relative to DMSO controls.

Each structure is given as a SMILES string. Several values for one entry are separate records, joined by “and”; a condition that tells them apart may be missing. Equal values may be shown once.

T3 sequence (Q13557 whole entry): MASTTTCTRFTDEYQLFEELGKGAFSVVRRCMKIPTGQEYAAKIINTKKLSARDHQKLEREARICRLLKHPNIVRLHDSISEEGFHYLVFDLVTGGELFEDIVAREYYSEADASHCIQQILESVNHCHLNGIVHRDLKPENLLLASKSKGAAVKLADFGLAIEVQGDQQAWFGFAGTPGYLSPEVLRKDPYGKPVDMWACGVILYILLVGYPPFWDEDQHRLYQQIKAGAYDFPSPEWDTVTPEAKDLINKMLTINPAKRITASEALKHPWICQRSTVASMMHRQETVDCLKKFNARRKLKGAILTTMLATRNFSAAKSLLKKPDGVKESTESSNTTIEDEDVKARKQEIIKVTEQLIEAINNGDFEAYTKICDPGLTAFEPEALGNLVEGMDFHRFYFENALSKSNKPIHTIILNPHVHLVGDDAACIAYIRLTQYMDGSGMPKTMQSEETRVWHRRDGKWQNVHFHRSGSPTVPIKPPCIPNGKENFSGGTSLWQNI

For `CCN(CC)c1nc(-c2ccncc2)nc2c(-c3ccc(Cl)cc3)cccc12` [VT02484], the LATS2 kinase activity at LATS2 (Conc. 0.00016935 (µM)) was 96.8406 and 89.7881; on LATS2 (Conc. 0.00050805 (µM)) it was 86.8123 and 94.4369; at LATS2 (Conc. 0.00152416 (µM)) it was 95.4849 and 93.7686; at LATS2 (Conc. 0.00457247 (µM)), 92.5091 and 95.5041; on LATS2 (Conc. 0.0137174 (µM)), 94.4128 and 88.6006; at LATS2 (Conc. 0.0411523 (µM)), 86.8411 and 90.365. The LATS2 kinase activity was 93.2446 and 92.7206 on LATS2 (Conc. 0.123457 (µM)); 94.4513 and 95.1243 at LATS2 (Conc. 0.37037 (µM)); 88.3362 and 87.5718 on LATS2 (Conc. 1.11111 (µM)); 84.322 and 85.4373 on LATS2 (Conc. 3.33333 (µM)); 81.6154 and 76.4186 at LATS2 (Conc. 10 (µM)). At LATS2, the IC50 was greater than 10000 nM.
For the compound `NCC1CCN(c2nc(-c3ccncc3)nc3c(C#CCO)cccc23)CC1` [VT02956], the remaining activity at 0.005 µM at PHKg2 is 82%; at CAMK2d, 77%; on COT1/MAP3K8 it was 86%. Moreover, the YAP phosphorylation in experiment [1] (Conc. 0.00457247 (µM)) was 88.3714 and 102.283; in experiment [1] (Conc. 0.0137174 (µM)), 105.168 and 111.221; in experiment [1] (Conc. 0.0411523 (µM)), 96.441 and 81.638; in experiment [1] (Conc. 0.123457 (µM)), 73.179 and 42.0107; in experiment [1] (Conc. 0.37037 (µM)) it was 20.9423 and 23.4127; in experiment [1] (Conc. 1.11111 (µM)) it was 9.018 and 5.767. The IC50 is 160 nM in experiment [1] (HEK293-A, 2 h, HEK293A cells, 120 min, read-out: YAP phosphorylation IC50) and 0.52 nM at LATS2. For the same compound, in the experiment with melanoma B16 cells, the “growth of ER negative melanoma B16 cells” value is “had little effect”. Moreover, the LATS2 kinase activity on LATS2 (Conc. 0.00016935 (µM)) is 60.6319 and 66.1157; on LATS2 (Conc. 0.00050805 (µM)) it was 35.6649 and 36.636; on LATS2 (Conc. 0.00152416 (µM)), 7.393 and 7.887.

For orientation: IC50 means the concentration needed to halve the response being measured.
